Measurements from PubChem BioAssay AID2060611 (Molecular Pharmacology Branch, DTP, NCI, 2025).
“And” between values parts separate entries of the source, which are not always exact repeats. Equal entries are not always repeated.

Test system: 628569-122-R-J1-PDC complex spheroid viability
Experiment: Anticancer human tumor 628569-122-R-J1-PDC patient-derived head and neck squamous carcinoma cell line growth inhibition [CLK]
Conditions: for viability, T/C: stronger effect = lower value; active = viability on the fitted dose curve at most 10% of control; inactive = the rest
In short: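 Multi-cell-type spheroids combined patient-derived tumor cells with HUVEC endothelial cells and human mesenchymal stem cells. Paired agents were dosed in half-log steps down from about clinical Cmax, or from 10 microM where Cmax was unknown.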
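Also: spheroids exposed to agents for seven days before readout.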
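For viability, T/C in this document: 100% = DMSO vehicle control viability.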

CC(CO)NC(=O)c1cc(-c2ccc(Cl)cc2)nn(-c2cnn(C)c2)c1=O (centres undefined) + CN1CCN(c2cc(C(=O)Nc3cc4cc(-c5cnn(C)c5)ccc4cn3)ccn2)CC1
inactive: viability, T/C (second compound 0.0316 µM, first compound 0.0316 µM) 141% | viability, T/C (second compound 0.0316 µM, first compound 0.1 µM) 195% | viability, T/C (second compound 0.0316 µM, first compound 0.316 µM) 196% | viability, T/C (second compound 0.0316 µM, first compound 1 µM) 216% | viability, T/C (second compound 0.0316 µM, first compound 3.16 µM) 205% | viability, T/C (second compound 0.0316 µM, first compound 10 µM) 173% | viability, T/C (second compound 0.1 µM, first compound 0.0316 µM) 113% | viability, T/C (second compound 0.1 µM, first compound 0.1 µM) 142% | viability, T/C (second compound 0.1 µM, first compound 0.316 µM) 151% | viability, T/C (second compound 0.1 µM, first compound 1 µM) 152% | viability, T/C (second compound 0.1 µM, first compound 3.16 µM) 152% | viability, T/C (second compound 0.1 µM, first compound 10 µM) 148% | viability, T/C (second compound 0.316 µM, first compound 0.0316 µM) 62.6% | viability, T/C (second compound 0.316 µM, first compound 0.1 µM) 63.5% | viability, T/C (second compound 0.316 µM, first compound 0.316 µM) 68.9% | viability, T/C (second compound 0.316 µM, first compound 1 µM) 77.1% | viability, T/C (second compound 0.316 µM, first compound 3.16 µM) 73% | viability, T/C (second compound 0.316 µM, first compound 10 µM) 76.2%
active: viability, T/C (second compound 1 µM, first compound 0.0316 µM) 8.6% | viability, T/C (second compound 1 µM, first compound 0.1 µM) 5.35% | viability, T/C (second compound 1 µM, first compound 0.316 µM) 7.74% | viability, T/C (second compound 1 µM, first compound 1 µM) 6.71% | viability, T/C (second compound 1 µM, first compound 3.16 µM) 4.91% | viability, T/C (second compound 1 µM, first compound 10 µM) 5.72% | viability, T/C (second compound 3.16 µM, first compound 0.0316 µM) 7.85% | viability, T/C (second compound 3.16 µM, first compound 0.1 µM) 5.72% | viability, T/C (second compound 3.16 µM, first compound 0.316 µM) 7.76% | viability, T/C (second compound 3.16 µM, first compound 1 µM) 7.17% | viability, T/C (second compound 3.16 µM, first compound 3.16 µM) 7.12% | viability, T/C (second compound 3.16 µM, first compound 10 µM) 7.82% | viability, T/C (second compound 10 µM, first compound 0.0316 µM) 4.35% | viability, T/C (second compound 10 µM, first compound 0.1 µM) 2.99% | viability, T/C (second compound 10 µM, first compound 0.316 µM) 3.66% | viability, T/C (second compound 10 µM, first compound 1 µM) 2.79% | viability, T/C (second compound 10 µM, first compound 3.16 µM) 4.67% | viability, T/C (second compound 10 µM, first compound 10 µM) 2.07%
< 0.0316 µM: IC50 (curve of first compound, second compound 1 µM) | IC50 (curve of first compound, second compound 3.16 µM) | IC50 (curve of first compound, second compound 10 µM)
> 10 µM: IC50 (curve of first compound, second compound 0.0316 µM) | IC50 (curve of first compound, second compound 0.1 µM) | IC50 (curve of first compound, second compound 0.316 µM)

CCCS(=O)(=O)Nc1ccc(F)c(C(=O)c2c[nH]c3ncc(-c4ccc(Cl)cc4)cc23)c1F
> 10 µM: IC50 (curve of compound)
inactive: viability, T/C (compound 0.0316 µM) 107% and 87% | viability, T/C (compound 0.1 µM) 88.2% and 74.5% | viability, T/C (compound 0.316 µM) 94.3% and 70.7% | viability, T/C (compound 1 µM) 108% and 71.2% | viability, T/C (compound 3.16 µM) 104% and 77.5% | viability, T/C (compound 10 µM) 83.7% and 70.3%
